Results from US20190262457A1, “NOVEL ALKYLATING AGENT” (CHIBA-PREFECTURE, priority 2016, published 2019).

What was measured:
Format in all cases: cell-based, human
SW480 cells [1] = experiment: Cytotoxicity and IC50 comparison with CBI by WST assay, 48 hours; settings: WST-8
Method: (§1) From the cell lines mentioned above, a large intestine cancer cell line SW480 was used as cells expressing PD-1, and a large intestine cancer cell line RKO was used as cells expressing PD-L1. An experiment was conducted to compare toxicity and IC50 between the PIP-drug conjugate compound CCC07-01 and the alkylating agent CBI used as a drug conjugate therein. The cells of each line were inoculated at 3000 cells/well to a 96-well microplate and cultured overnight. On the next day, the cells were treated with the PIP-CBI conjugate (CCC07-01) or CBI having a concentration of 0.1, 1, 10, 30, 100, 300, or 1000 nM (1 μM) for 48 hours. Then, WST-8 reagent was added to each well using Cell counting kit-8, and the mixture was reacted for 2 hours. Then, the cell count was calculated at a wavelength of 450 nm by the colorimetric analysis method using a microplate reader. The method for calculating the cell count involved: 1) obtaining the mean value of a medium alone, 2) subtracting the mean value of the medium from each well, 3) obtaining the mean value of DMSO, 4) dividing the medium mean value-subtracted value by the mean value of DMSO and then multiplying by 100, and 5) obtaining the mean value of each treatment group and a standard deviation, and preparing a graph. IC50 was calculated according to the following expression: IC50=10(LOG(A/B)×(50−C)/(D−C)+LOG(B) wherein A: a higher concentration of two concentrations sandwiching 50%, B: a lower concentration of two concentrations sandwiching 50%, C: the rate of inhibition at B, and D: the rate of inhibition at A.

RKO cells [2] = experiment: as above; settings: WST-8
Method: as §1

A2058 cells = experiment: Cytotoxicity test by WST assay, IC50 24 hours after administration; settings: WST-8
Method: (§2) From the cell lines mentioned above, a large intestine cancer cell line SW480 was used as cells expressing PD-1, a large intestine cancer cell line RKO was used as cells expressing PD-L1, and a malignant melanoma cell line A2058 and a pancreatic cancer cell line MIA PaCa-2 were used as cells expressing CTLA-4. The cells of each line were inoculated at 3000 cells/well to a 96-well microplate and cultured overnight. On the next day, the cells were treated with CCC07-01 having a concentration of 0.1, 1, 10, 30, 100, 300, or 1000 nM (1 μM) for 24 hours. Then, WST-8 reagent was added to each well using Cell counting kit-8, and the mixture was reacted for 2 hours. Then, the cell count was calculated at a wavelength of 450 nm by the colorimetric analysis method using a microplate reader. The method for calculating the cell count involved: 1) obtaining the mean value of a medium alone, 2) subtracting the mean value of the medium from each well, 3) obtaining the mean value of DMSO, 4) dividing the medium mean value-subtracted value by the mean value of DMSO and then multiplying by 100, and 5) obtaining the mean value of each treatment group and a standard deviation, and preparing a graph. IC50 was calculated according to the following expression: IC50=10(LOG(A/B)×(50−C)/(D−C)+LOG(B) wherein A: a higher concentration of two concentrations sandwiching 50%, B: a lower concentration of two concentrations sandwiching 50%, C: the rate of inhibition at B, and D: the rate of inhibition at A.
(§3) The cells used in the experiment were RKO (large intestine cancer), SW480 (large intestine cancer), A2058 (malignant melanoma), and MIA PaCa-2 (pancreatic cancer).

MIA PaCa-2 cells = experiment: as above; settings: MIA-PaCa2 cells, WST-8
Method: as §2, §3

SW480 cells [3] = experiment: as above; settings: WST-8
Method: as §2, §3

RKO cells [4] = experiment: as above; settings: WST-8
Method: as §2, §3

CC(=O)Nc1cn(C)c(C(=O)Nc2cc(C(=O)Nc3cn(C)c(C(=O)Nc4cn(C)c(C(=O)NCCC(=O)Nc5cc(C(=O)Nc6cc(C(=O)NCCCC(=O)Nc7cc(C(=O)Nc8cn(C)c(C(=O)NCCC(=O)Nc9cc(C(=O)Nc%10cc(C(=O)Nc%11ccc%12[nH]c(C(=O)N%13CC(CCl)c%14c%13cc(O)c%13ccccc%14%13)cc%12c%11)n(C)c%10)n(C)c9)n8)n(C)c7)n(C)c6)n(C)c5)n4)n3)n(C)c2)n1 (stereo not drawn) [CCC07-01]
IC50 (SW480 cells [1]): 0.011 µM
IC50 (RKO cells [2]): 0.004 µM
IC50 (A2058 cells): 0.011 µM
IC50 (MIA PaCa-2 cells): 0.189 µM
IC50 (SW480 cells [3]): 0.027 µM
IC50 (RKO cells [4]): 0.012 µM
